From ChEMBL document CHEMBL1201862, “PubChem BioAssay data set” (2004) come the findings set out here.

Some test systems named below: SK-MEL-2; A498; U-251; DU-145; SF-295; OVCAR-4; MCF7; UO-31; M14; HT-29; MDA-N; NCI-H23; HCT-116; PC-3; A549; T47D; CAKI-1; NCI-H226; ACHN; EKVX.
Test in all cases: DTP human tumour cell line panel, 48 h

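Interpolation was linear, between the two tested concentrations surrounding the appropriate level; five concentrations were tested over 48 hours in 96-well plates. At the GI50, growth is halved.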 Activity calls are given as the source filed them. No stated cut-off is given here; in the data, active = GI50 up to about 1.1 µM and inactive = higher.

For orientation: GI50 means the concentration giving 50% growth inhibition. With `Cn1c(Nc2ccccc2)c(/C=N\c2ccccc2)c(=O)n(C)c1=O`, the GI50 is > 100 µM (inactive) in the assay with SK-MEL-2; 80 µM (inactive) in the assay with A498; 30 µM (inactive) in the assay on U-251; > 100 µM (inactive) in the assay on DU-145; 89.5 µM (inactive) with SF-295; > 100 µM (inactive) with OVCAR-4. Besides, the GI50 was > 100 µM (inactive) in the assay with MCF7; 54.2 µM (inactive) in the assay with UO-31; > 100 µM (inactive) in the assay on M14; 47.9 µM (inactive) in the assay on HT-29; > 100 µM (inactive) in the assay with MDA-N; 82.6 µM (inactive) in the assay with NCI-H23. Moreover, the GI50 in the assay on HCT-116 is 48.2 µM (inactive); with PC-3 it was > 100 µM (inactive); in the assay with A549, > 100 µM (inactive).
Take `CCCCC(=O)Nc1ccc2cc(C(=O)OC)c(=O)[nH]c2n1`: the GI50 with T47D, in the assay with CAKI-1, in the assay with SK-MEL-2, in the assay with A498, in the assay on U-251 and with SF-295 was > 100 µM (inactive) each time. In addition, the GI50 in the assay on OVCAR-4, in the assay on MCF7, in the assay with UO-31, with NCI-H226, with M14 and in the assay with ACHN was > 100 µM (inactive) in each case. Moreover, the GI50 in the assay on MDA-N, in the assay on NCI-H23, in the assay with HCT-116, in the assay with EKVX, in the assay with PC-3 and with A549 was > 100 µM (inactive) throughout.
`CC1=CCC2CC1NC(=O)CCOCCC(=O)NC2(C)C` (stereo not drawn): the GI50 in the assay with CAKI-1, with SK-MEL-2, with A498, with U-251, with DU-145 and in the assay with SF-295 was > 100 µM (inactive) throughout. Also, the GI50 in the assay on OVCAR-4, in the assay on MCF7, in the assay with UO-31, in the assay on NCI-H226, in the assay on M14 and with HT-29 was > 100 µM (inactive) throughout. Further, the GI50 in the assay with ACHN, with MDA-N, with NCI-H23, in the assay on HCT-116, in the assay on PC-3 and in the assay with A549 was > 100 µM (inactive) in each case.
In the case of `COc1ccc(/C(C)=N/NC(=S)N(C)C)c(O)c1`, the GI50 in the assay on T47D is 7.48 µM (inactive); in the assay on CAKI-1, 4.92 µM (inactive); in the assay on SK-MEL-2, 14.4 µM (inactive); with U-251, 7.83 µM (inactive); in the assay with DU-145 it was 11.5 µM (inactive); in the assay on SF-295, 4.05 µM (inactive). Besides, the GI50 in the assay on OVCAR-4 was 2.32 µM (inactive); with UO-31 it was 5.65 µM (inactive); in the assay with NCI-H226, 4.09 µM (inactive); in the assay with M14, 2.72 µM (inactive); in the assay with HT-29, 3.8 µM (inactive); in the assay with ACHN, 6.41 µM (inactive). Also, the GI50 in the assay with MDA-N was 16 µM (inactive); with NCI-H23, 8.11 µM (inactive); in the assay on HCT-116 it was 6.95 µM (inactive); in the assay on EKVX it was 5.41 µM (inactive); with PC-3 it was 6.4 µM (inactive); with A549, 4.52 µM (inactive).
As to `Cc1cc(NC(=O)C(=O)Cc2cnc3ccccc3n2)c(S(=O)(=O)O)cc1Cl`, the GI50 in the assay with T47D, in the assay on CAKI-1, in the assay on SK-MEL-2, with A498, in the assay on U-251 and in the assay with DU-145 was > 100 µM (inactive) each time. Also, the GI50 in the assay on SF-295, with OVCAR-4, in the assay with MCF7, with UO-31, with NCI-H226 and in the assay on M14 was > 100 µM (inactive) in each case. The GI50 in the assay on HT-29, with ACHN, in the assay on NCI-H23, with HCT-116, with EKVX and in the assay with PC-3 was > 100 µM (inactive) throughout. Besides, the GI50 in the assay with A549 was > 100 µM (inactive).
As to `COc1ccc2c(c1)OCc1c-2oc2ccccc2c1=O`, the GI50 with CAKI-1 was > 100 µM (inactive); in the assay on SK-MEL-2, > 100 µM (inactive); in the assay on A498, > 100 µM (inactive); with U-251, 35.8 µM (inactive); in the assay with DU-145, > 100 µM (inactive); in the assay with SF-295, 52.7 µM (inactive). Also, the GI50 in the assay on MCF7 is > 100 µM (inactive); in the assay on UO-31, > 100 µM (inactive); in the assay on NCI-H226, > 100 µM (inactive); in the assay on M14 it was > 100 µM (inactive); with HT-29, > 100 µM (inactive); in the assay with ACHN it was 61.1 µM (inactive). For the same compound, the GI50 is > 100 µM (inactive) in the assay on MDA-N; 0.0895 µM (active) with NCI-H23; > 100 µM (inactive) with HCT-116; > 100 µM (inactive) in the assay with EKVX; > 100 µM (inactive) in the assay with PC-3; > 100 µM (inactive) in the assay with A549.
On to `c1ccc(C(NC2CCCCC2NCCNC2CCCCC2NC(c2ccccc2)(c2ccccc2)c2ccccc2)(c2ccccc2)c2ccccc2)cc1` (stereo not drawn), for which the GI50 was 11.7 µM (inactive) with T47D; 64.4 µM (inactive) with CAKI-1; 26.1 µM (inactive) with SK-MEL-2; 22.6 µM (inactive) in the assay with A498; 13.9 µM (inactive) in the assay with U-251; 96.6 µM (inactive) in the assay on DU-145. Moreover, the GI50 in the assay on SF-295 is > 100 µM (inactive); in the assay with OVCAR-4, 26.6 µM (inactive); in the assay on MCF7 it was 17.7 µM (inactive); in the assay with UO-31, 20.4 µM (inactive); with HT-29, > 100 µM (inactive); in the assay with ACHN, 90.2 µM (inactive). Besides, the GI50 was 20.9 µM (inactive) in the assay on NCI-H23; 20.1 µM (inactive) in the assay on HCT-116; 87.9 µM (inactive) in the assay on EKVX; 64 µM (inactive) in the assay with PC-3; 64.1 µM (inactive) in the assay on A549.
As to `CC(=O)c1c(SCCN2CCCCCC2)n(-c2ccccc2)c(=S)n(-c2ccccc2)c1=O`, the GI50 was 2.31 µM (inactive) with T47D; 3.85 µM (inactive) with CAKI-1; 19.4 µM (inactive) in the assay on SK-MEL-2; 13.4 µM (inactive) in the assay with A498; 15.9 µM (inactive) with U-251; 2.17 µM (inactive) in the assay on DU-145. The GI50 was 35.9 µM (inactive) in the assay on SF-295; 20.9 µM (inactive) in the assay with OVCAR-4; 29 µM (inactive) with NCI-H226; 2.15 µM (inactive) with M14; 7.4 µM (inactive) in the assay with HT-29; 1.68 µM (inactive) in the assay on ACHN. Besides, the GI50 is 7.29 µM (inactive) in the assay on MDA-N; 17.3 µM (inactive) in the assay on NCI-H23; 6.81 µM (inactive) with HCT-116; 19.2 µM (inactive) in the assay on EKVX; 5.26 µM (inactive) in the assay on PC-3; 6.82 µM (inactive) in the assay with A549.
As to `CCCCCCCCCCCCCCCCNc1ccn(C2CC(OP(=O)(O)OCC3OC(n4cc(CC)c(=O)[nH]c4=O)CC3O)C(CO)O2)c(=O)n1` (stereo not drawn), the GI50 with T47D was 44.2 µM (inactive); in the assay on CAKI-1, 42.9 µM (inactive); in the assay with SK-MEL-2, 19.4 µM (inactive); with A498 it was > 100 µM (inactive); in the assay on U-251, 26.8 µM (inactive); in the assay with DU-145, 31.8 µM (inactive). Also, the GI50 was 18.7 µM (inactive) in the assay on SF-295; > 100 µM (inactive) with OVCAR-4; 32.5 µM (inactive) in the assay with MCF7; 19.2 µM (inactive) in the assay on UO-31; 47.2 µM (inactive) in the assay on NCI-H226; 17.8 µM (inactive) in the assay on M14. In addition, the GI50 in the assay with HT-29 is 21.6 µM (inactive); in the assay with ACHN, 42.8 µM (inactive); in the assay on NCI-H23, 34.6 µM (inactive); in the assay with HCT-116, 50.1 µM (inactive); with EKVX, 43 µM (inactive); with PC-3 it was 18.5 µM (inactive). In addition, in the assay on A549, the GI50 was 22 µM (inactive).
In the case of `CC1(C)OC[C@@H]([C@@]2(COC(c3ccccc3)(c3ccccc3)c3ccccc3)CC=CC(=O)O2)O1`, the GI50 is 48.5 µM (inactive) with T47D; 30.6 µM (inactive) in the assay with CAKI-1; 11.2 µM (inactive) in the assay on SK-MEL-2; 22 µM (inactive) with A498; 48.9 µM (inactive) in the assay on U-251; 56.2 µM (inactive) in the assay with DU-145. In addition, the GI50 in the assay with SF-295 was 36.5 µM (inactive); in the assay on OVCAR-4, 28.2 µM (inactive); in the assay with MCF7, 21.8 µM (inactive); in the assay on UO-31, 32.4 µM (inactive); in the assay with NCI-H226, 32.7 µM (inactive); in the assay with M14, 39.7 µM (inactive). The GI50 was 35 µM (inactive) in the assay with HT-29; 30.5 µM (inactive) with ACHN; 42.1 µM (inactive) with NCI-H23; 30.3 µM (inactive) in the assay on HCT-116; 30.9 µM (inactive) in the assay on EKVX; 41.3 µM (inactive) in the assay with PC-3. In addition, the GI50 with A549 was 40.7 µM (inactive).
`CC(/C=C/C=C/C=C/C=C/C=C/C(=O)C1=C(O)C(CCC(=O)O)N(C)C1=O)=C\C(C)C(OC1CC(O)C(O)C(C)O1)C(C)C` (stereo not drawn): the GI50 was 3.5 µM (inactive) in the assay on CAKI-1; 1.78 µM (inactive) in the assay on SK-MEL-2; 2.84 µM (inactive) in the assay on A498; 3.6 µM (inactive) in the assay on U-251; 3.42 µM (inactive) with DU-145; 3.8 µM (inactive) with SF-295. Besides, the GI50 in the assay with OVCAR-4 is 5.75 µM (inactive); with MCF7, 4.35 µM (inactive); in the assay on UO-31 it was 3.3 µM (inactive); in the assay on NCI-H226, 3.48 µM (inactive); with M14 it was 3.26 µM (inactive); in the assay with HT-29, 3.02 µM (inactive). Moreover, the GI50 in the assay with ACHN is 3.13 µM (inactive); with MDA-N, 2.97 µM (inactive); in the assay with NCI-H23, 2.62 µM (inactive); in the assay on HCT-116, 2.82 µM (inactive); in the assay with EKVX, 3.31 µM (inactive); in the assay on PC-3, 3.32 µM (inactive). Besides, in the assay on A549, the GI50 was 3.19 µM (inactive).
